Reference: patent US7318917B2, “Rapid assays for neurotransmitter transporters” (Vanderbilt University, priority 2002, dated 2008)

How the values were obtained:
SERT [1] = biological target: T1, SERT (Homo sapiens, UniProt P31645); test: ASP+ accumulation in hSERT-transfected HEK cells by confocal fluorescence microscopy; assay type: cell-based; conditions: 2 mM ASP as printed in the FIG. 3 legend
T1 construct: expressed in transfected cells
Procedure: (§1) FIGS. 3A-3L. Monoamine transporters interact with ASP^+. Like HEK-hNET cells hDAT and hSERT transfected cells accumulate ASP^+. hNET (FIGS. 3A, 3B & 3C), hDAT (FIGS. 3D, 3E & 3F), hSERT (FIGS. 3G, 3H & 3I) and HEK-293 (FIGS. 3J, 3K & 3L) were exposed to 2 mM ASP for the times indicated in FIGS. 3J, 3K & 3L. The color gradient represented in FIG. 3J denotes the corresponding ASP^+ intensity values.
(§2) HEK-hNET cells were plated on 35 mm glass bottom Petri-dishes (MatTek, Ashland, Mass.) coated with poly-L-lysine three days prior to experimentation. The culture medium was aspirated, cells were immediately mounted on a Zeiss 410 confocal microscope and the microscope was focused on the center of the monolayer of cells. During the confocal measurment cells remain without buffer for approximately thirty seconds. Background autoflourescence was established by collecting images for ten seconds prior to the addition of KRH (see Radiolabeled Transport),[…] Glucose, 10 μM ascorbic acid, 10 μM pargalyine, 10 μM tropolone (Sigma, Boulder CO), and ASP^+. […] The effects of photobleaching on ASP^+ accumulation were determined by examining the rate of ASP^+ fluorescence at various acquisition rates. […]
(§3) The fluorescent images were processed using MetaMorph imaging software (Universal Imaging Corporation, Downington Pa.). […] All cells are subtracted against auto-fluorescence.

NET [2] = biological target: T2, NET (Homo sapiens, UniProt P23975); test: ASP+ accumulation in HEK-hNET cells by confocal fluorescence microscopy (phase I binding, phase II transport); design: NET-mediated ASP accumulation after pre-incubation (endocytosis test): dose or concentration left out as unconfirmed; conditions: for phase II (ASP+ transport) slope in the presence of the agent: 10 min pre-incubation with 10 μM cocaine or 30 μM NE; for phase II (ASP+ transport) slope in the presence of the agent / phase I (ASP+ binding) slope in the presence of the agent: then 2 μM ASP+, gramicidin 10 mg/mL 15 min before ASP+; for phase I (ASP+ binding) slope in the presence of the agent: 10 min pre-incubation with 10 μM desipramine, 10 μM cocaine or 30 μM NE
T2 sequence (P23975 whole entry): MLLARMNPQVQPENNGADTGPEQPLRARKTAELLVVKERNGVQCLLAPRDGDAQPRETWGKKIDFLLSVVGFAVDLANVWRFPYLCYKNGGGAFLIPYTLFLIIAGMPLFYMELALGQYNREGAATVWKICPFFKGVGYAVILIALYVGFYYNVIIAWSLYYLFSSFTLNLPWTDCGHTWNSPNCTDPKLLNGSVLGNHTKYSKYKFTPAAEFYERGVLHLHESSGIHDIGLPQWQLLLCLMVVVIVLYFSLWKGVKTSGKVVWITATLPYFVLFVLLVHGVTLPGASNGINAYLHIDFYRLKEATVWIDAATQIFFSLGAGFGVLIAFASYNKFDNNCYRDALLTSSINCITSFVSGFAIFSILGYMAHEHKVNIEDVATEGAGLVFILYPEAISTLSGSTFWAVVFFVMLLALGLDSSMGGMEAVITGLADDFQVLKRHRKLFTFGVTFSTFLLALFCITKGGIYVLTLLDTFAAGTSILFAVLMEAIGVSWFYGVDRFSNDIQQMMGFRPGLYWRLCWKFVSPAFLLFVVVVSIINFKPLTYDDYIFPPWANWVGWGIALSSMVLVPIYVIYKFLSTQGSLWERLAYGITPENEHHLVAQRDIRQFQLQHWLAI

DAT [3] = biological target: T3, DAT (Homo sapiens, UniProt Q01959); test: ASP+ accumulation in hDAT-transfected HEK cells by confocal fluorescence microscopy; assay type: cell-based; design: expressed in transfected cells; host or cells: HEK-293; conditions: 2 mM ASP as printed in the FIG. 3 legend
T3 sequence (Q01959 whole entry): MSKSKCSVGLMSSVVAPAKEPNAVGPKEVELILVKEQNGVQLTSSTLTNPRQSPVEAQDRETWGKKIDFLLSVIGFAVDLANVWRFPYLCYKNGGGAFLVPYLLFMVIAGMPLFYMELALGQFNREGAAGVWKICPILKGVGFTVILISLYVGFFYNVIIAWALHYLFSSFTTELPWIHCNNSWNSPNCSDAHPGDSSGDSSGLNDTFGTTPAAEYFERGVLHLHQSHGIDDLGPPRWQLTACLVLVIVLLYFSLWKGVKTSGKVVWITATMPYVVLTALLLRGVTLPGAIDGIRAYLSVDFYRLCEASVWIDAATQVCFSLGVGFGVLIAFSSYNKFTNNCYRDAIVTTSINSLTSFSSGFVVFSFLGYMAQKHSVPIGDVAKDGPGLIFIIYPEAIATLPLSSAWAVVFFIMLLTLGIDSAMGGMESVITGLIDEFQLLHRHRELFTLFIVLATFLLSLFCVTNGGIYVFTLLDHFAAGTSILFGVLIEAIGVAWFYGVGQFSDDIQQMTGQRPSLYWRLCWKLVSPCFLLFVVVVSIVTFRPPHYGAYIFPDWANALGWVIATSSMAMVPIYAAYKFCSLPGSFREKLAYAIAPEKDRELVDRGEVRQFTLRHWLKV
Procedure: as §1, §2, §3

NET [4] = biological target: T2, NET; test: Fluorescence anisotropy of ASP+ in HEK-hNET cells; assay type: cell-based; design: expressed in transfected cells
Procedure: To evaluate ASP^+ binding to the surface membranes, HEK-hNET cells were exposed to 2 μM ASP^+ with horizontal polarizer (FIG. 5C), with the polarizer rapidly switching to the vertical position. Cells were imaged with alternating polarizations for 3 minutes to measure light intensity in the horizontal (Ih) and vertical (Iv) positions in order to calculate the anisotropy ratio, r=(Iv−gIh)/(Iv+2 g Ih). The factor g was determined by using a half wave plate as described by Blackman et al. (1996). In this formulation, r =0.4 implies an immobile source (Smith et al., 1999). Surface anisotropy was measured from the cell circumference, taken as 1 pixel width. Cytosolic anisotropy was measured near the center of the cell, approximately 5 pixel widths from the membrane.
Notice that rapid accumulation, which peaks at the cell edges (arrows), remains essentially constant between 3 and 180 sec., whereas brightness at the cell center (between arrows) gradually increases over this same period. Furthermore, accumulation at the center occurs at the same rate as phase II (compare phase II slope in FIG. 4 with center elevation in FIG. 5A). […] To test this interpretation the inventors measured the anisotropy of light from cell edges and cell centers.

DAT [5] = biological target: T3, DAT; test: ASP+ uptake assay on FLEXstation, DAT-transfected HEK-293 cells; assay type: cell-based; design: expressed in transfected cells; conditions: FIG. 10B
Procedure: (§4) Medium for the transfected lines was supplemented with G418 (250 μg/ml). Trypsin, glutamine, penicillin, streptomycin, G418, and phosphate-free DMEM were purchased from Life Technologies, Inc. or obtained from the Vanderbilt Media Core. For all transport assays, cells were plated on poly-D-lysine (0.1 mg/ml)-coated (0.1 mg/ml)-coated 96-well plates. HEK cells were plated at 12,500 cells per well in 96 well plates, HEK-DAT cells were plated at 15,000 cells per well, HEK-NET cells were plated at 20,000 per well, and HEK-SERT cells were plated at 20,000 per well in a volume of 200 uL. HEK, HEK-DAT, and HEK-SERT cells were grown for 48 hours and HEK-NET cells were grown for 72 hours to a confluency of ˜90%.
(§5) ASP^+ was obtained from Molecular Probes, Inc. and dissolved in KRH buffer to indicated concentrations. Trypan Blue was obtained from Sigma as a 0.4% solution and diluted to a final concentration of 30 uM in KRH buffer.
(§6) To limit the time delay between the addition of ASP^+ and the measurement of accumulation of ASP^+ during the kinetic assays, plates were divided in half and assayed one half at a time. At assay, the medium was removed from wells in the first 6 columns by aspiration, and the cells were incubated with Trypan Blue in KRH buffer for 20 minutes at 37° C.in room air. Then, medium was removed from the wells in the last 6 columns and replaced with Trypan Blue in KRH buffer.

NET [6] = biological target: T2, NET; assay type: cell-based; design: expressed in transfected cells; conditions: FLEXstation, FIG. 10A
Procedure: as §4, §5, §6

SERT [7] = biological target: T1, SERT; test: ASP+ uptake assay on FLEXstation, SERT-transfected HEK-293 cells; assay type: cell-based; conditions: FIG. 10C
Procedure: HEK-293 cells (American Type Culture Collection, Manassas, Va.) and HEK-293 cells stably transfected with SERT, NET, or DAT (Qian et al, 1997) were maintained in monolayer culture at 37° C., 5% CO2 in Dulbecco's modified Eagle's medium (DMEM) containing 10% fetal bovine serum, 2 mM glutamine, 100 units/ml penicillin, and 100 μg/ml streptomycin. Medium for the transfected lines was supplemented with G418 (250 μg/ml). Trypsin, glutamine, penicillin, streptomycin, G418, and phosphate-free DMEM were purchased from Life Technologies, Inc. or obtained from the Vanderbilt Media Core. For all transport assays, cells were plated on poly-D-lysine (0.1 mg/ml)-coated (0.1 mg/ml)-coated 96-well plates. […]
To limit the time delay between the addition of ASP^+ and the measurement of accumulation of ASP^+ during the kinetic assays, plates were divided in half and assayed one half at a time. […] After incubation, ASP^+ was added to the first 6 columns in 20 μL aliquots at indicated concentrations and accumulated fluorescence measured and recorded over time by the FLEXStation ultilizing SoftMax Pro Software. Then, ASP^+ was added to the last 6 columns and fluorescence accumulation measured and recorded. […]
Endpoint assays were conducted to evaluate the sensitivity of ASP^+ uptake to transporter antagonists. […] ASP^+ accumulation was measured after 10 minutes. […]

NET [8] = biological target: T2, NET; test: [3H]NE accumulation (radiolabeled transport assay) in hNET-transfected HEK-293 cells; assay type: cell-based; design: expressed in transfected cells; conditions: Cheng-Prusoff correction, non-specific by 10 μM desipramine, N=5, mean±S.E.M., read-out: Ki, inhibition of [3H]NE accumulation
Procedure: FIG. 1. MPP^+ and ASP^+ inhibit NE accumulation. [^3H]NE accumulation was measured in the hNET-transfected HEK-293 cells in the presence of increasing concentrations of ASP^+ or MPP^+ and normalized to similar data in the absence of an inhibitor. […]. The data were fit to NE transport remaining by the equation y=100/(1+([I]/IC50)^n), where [I] is the concentration of ASP^+ or MPP^+ and Ki values were determined using Cheng-Prusoff correction for substrate concentration. […] Values are represented as means±S.E.M., N=5.
All accumulation studies were performed at room temperature (22° C.) unless otherwise indicated. HEK-hNET cells were plated on poly-L-lysine coated 24-well tissue culture plates at 10^5 cells per well three days prior to performing transport assays. The cells were at approximately 90% confluence on the third day. The medium was removed by aspiration. Cells were then pre-incubated for 10 min in Krebs-Ringer's-Hepes (KRH: in mM 130 NaCl, 1.3 KCl, 2.2 CaCl2, 1.2 MgSO4, 1.2 KH2PO4, 10 Hepes, and 1.8 g/L glucose, pH 7.4) medium with or without 10 μM desipramine. […]. Pargyline (10 μM) and ascorbic acid (10 μM) were added to prevent metabolism and oxidation of NE, respectively. The assay mixture was aspirated after 10 minutes and cells were washed three times with 4° C. […] Accumulated [^3H]NE was determined by liquid scintillation of 1% (w/v) sodium dodecylsulphate solubilized cells. […]

OCT = conditions: 10 μM; cited from earlier work
NET [9] = assay type: cell-based; conditions: 2 μM ASP+, 10 min pre-incubation with 10 μM desipramine
Procedure: SCG neurons were dissociated by trituration followed by digestion with 0.25% trypsin and 0.3% collagenase. Non-neuronal cells were removed by preplating on uncoated, Falcon 60 mm plates. Neurons were cultured on poly-L-ornithine/laminin/poly D-lysine coated MatTek Dishes at a density of 3000-4000 cells/well in F-14^+ media containing 5% fetal calf serum, 2 mM L-glutamine, 60 ng/ml progesterone, 16 mg/ml putrescine, 400 ng/ml L-thyroxine, 38 ng/ml sodium selenite, 340 ng/ml tri-iodothyroxine, 5 mg/ml insulin, penicillin/streptomycin, 10 μM fluorodeoxyuridine and 20 ng/ml NGF. The neurons were maintained for 3-5 days in the presence of NGF before use.
The interactions of ASP^+ with NET in primary tissue culture neurons were also examined.

T1 sequence (P31645 whole entry): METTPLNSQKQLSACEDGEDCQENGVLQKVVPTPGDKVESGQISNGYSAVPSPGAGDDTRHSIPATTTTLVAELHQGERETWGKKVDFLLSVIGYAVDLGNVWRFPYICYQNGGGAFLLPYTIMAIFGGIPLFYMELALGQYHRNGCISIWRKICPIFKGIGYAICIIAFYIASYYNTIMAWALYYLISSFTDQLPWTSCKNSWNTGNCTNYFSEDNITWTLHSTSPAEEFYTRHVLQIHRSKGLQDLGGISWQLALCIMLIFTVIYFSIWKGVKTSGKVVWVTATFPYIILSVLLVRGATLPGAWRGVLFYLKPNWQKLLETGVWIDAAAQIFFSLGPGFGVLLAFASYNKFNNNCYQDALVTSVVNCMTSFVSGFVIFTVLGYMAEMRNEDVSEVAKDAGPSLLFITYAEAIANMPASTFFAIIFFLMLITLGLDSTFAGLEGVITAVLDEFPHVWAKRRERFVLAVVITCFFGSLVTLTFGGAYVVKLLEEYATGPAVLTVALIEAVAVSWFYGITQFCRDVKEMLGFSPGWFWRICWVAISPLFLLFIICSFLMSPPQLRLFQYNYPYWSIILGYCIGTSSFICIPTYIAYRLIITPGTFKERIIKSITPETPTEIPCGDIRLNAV

## CN(C)c1ccc(C=Cc2cc[n+](C)cc2)cc1 [ASP^+, 4-(4-dimethylaminostyrl)-N-methylpyridinium]
SERT [1]
  ASP+ accumulation by hSERT transfected cells: accumulate
NET [2]; 800 nM ASP+, images at 0, 3 and 180 seconds
  ASP+ accumulation by cells expressing NET: accumulate
NET [2]; exponent n of the phase I fit
  Phase I n: 1.15±0.30
NET [2]; exponent n of the phase II fit
  Phase II n: 1.51±0.35
NET [2]; phase I (ASP+ binding) slope as a function of ASP+ concentration
  Phase I Vmax: 10.5±0.94 AFUs/sec
NET [2]; summary statement
  potency of ASP+ accumulation for hNET: sub-μM potency
DAT [3]
  ASP+ accumulation by hDAT transfected cells: accumulate
NET [4]
  fluorescence anisotropy, solution ASP+: 0.15
DAT [5]
  concentration-response of ASP+ accumulation, DAT: concentration-dependent accumulation
NET [6]
  concentration-response of ASP+ accumulation, NET: concentration-dependent accumulation
SERT [7]
  concentration-response of ASP+ accumulation, SERT: concentration-dependent accumulation
NET [8]
  Ki: 780 ± 77 nM

## C[n+]1ccc(-c2ccccc2)cc1 [MPP^+]
NET [8]
  Ki: 600 ± 67 nM

## NC[C@H](O)c1ccc(O)c(O)c1 [NE]
NET [2]
  phase II (ASP+ transport) slope in the presence of the agent: reduced
  phase I (ASP+ binding) slope in the presence of the agent: insignificant
NET [2]; summary statement
  effect on ASP+ accumulation in hNET-expressing HEK cells: competed for

## CNCCCN1c2ccccc2CCc2ccccc21 [desipramine]
OCT
  effect on OCT activity: without affecting
NET [9]
  sensitivity of ASP+ accumulation in SCG cells to desipramine: desipramine sensitive

## OC[C@H]1O[C@@](CO)(O[C@H]2O[C@H](CO)[C@@H](O)[C@H](O)[C@H]2O)[C@@H](O)[C@@H]1O [sucrose]
NET [2]; thirty-minute pre-incubation
  NET-mediated ASP accumulation after pre-incubation (endocytosis test): unaffected

## Gramicidin
NET [2]
  phase II (ASP+ transport) slope in the presence of the agent: reduces the slope
  phase I (ASP+ binding) slope in the presence of the agent: reduces the slope
